Measured values published in patent publication US20230021483A1, “[…] […] METHOD AND CLASSIFICATION OF PHARMACEUTICAL COMPONENTS BY USING TRANSCRIPTOMES” (National Institutes of Biomedical Innovation, Health and …, priority 2016, published 2023).
Several values for one entry are separate records, joined by “and”; a condition that tells them apart may be missing. Identical values can stand only once.

Columns and labels:
[1] = test system: preferentially upregulated genes in LV, SP, LN; assay: Z-score-based differential gene expression analysis (adjuvant group- or adjuvant-associated genes, 40 module mapping, TargetMine annotation); assay type: in vivo, C57BL/6 mice; conditions: liver (LV); gene group G1, module 20; individual mice x1-x3; route ID/IP/IN
How it was run: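 Per-sample fold-change values converted to gene-wise z-scores within each organ's data set, then triplicate z-scores summed per adjuvant. Genes with summed score >3 taken as preferentially expressed; gene groups defined by combined per-adjuvant z-score thresholds (z>1 to z>3) specific to each organ.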

[2] = test system: inguinal lymph nodes (LN); assay: Whole organ transcriptome (GeneChip microarray) of draining inguinal lymph nodes 6 h after adjuvant administration: sDEGs, gene modules, hierarchical clustering; assay type: in vivo, C57BL/6 mice; conditions: lymph node; as to adjuvant group (cluster) in LN: key: G1 (interferon signaling); G2 (metabolism of lipids and lipoproteins); G3 (response to stress); G4 (response to wounding); G5 (phosphate-containing compound metabolic process); G6 (phagosome)
[3] = test system: LV, SP and LNs; assay: Whole organ transcriptome across organs (adjuvant gene space): gene responses and adjuvant grouping; assay type: in vivo, C57BL/6 mice
[4] = test system: liver; conditions: mouse, in vivo, ip
Procedure: After 3 hours/6 hours, blood and liver were collected on day 1, day 2, day 3, and day 5. Hematoxylin and eosin staining was applied to the collected liver and histologically analyzed (FIG. 20).

For “heptanoyl-γ-D-glutamyl-(L)-meso-diaminopimelyl-(D)-alanine [FK565]”, the “Z score of gene expression, Adar (probe 1425405_a_at)” value [1] was −0.4 (2×) and −0.5, the “Z score of gene expression, Adar (probe 1434268_at)” value [1] was −0.1 and the “Z score of gene expression, Ddx58 (probe 1436562_at)” value [1] was −0.2 (2×) and −0.3. The “Z score of gene expression, Ddx58 (probe 1456890_at)” value [1] was −0.5 (2×) and −0.1, the “Z score of gene expression, Eif2ak2 (probe 1422005_at)” value [1] was 0.05 and 0.09 and −0.1 and the “Z score of gene expression, G3bp2 (probe 1421323_a_at)” value [1] was −0.3 (2×) and −0.2. For the same substance, the “Z score of gene expression, Gm9706///Isg15 (probe 1431591_s_at)” value [1] was −0.1 (2×) and −0.2, the “Z score of gene expression, H2-T10///H2-T22///H2-T9 (probe 1449875_s_at)” value [1] was 0.21 and 0.04 and 0.29 and the “Z score of gene expression, Ifih1 (probe 1426276_at)” value [1] was −0.3. The “Z score of gene expression, Ifit1 (probe 1449025_at)” value [1] was −0.4, the “Z score of gene expression, Ifit1 (probe 1450783_at)” value [1] was −0.4 and the “Z score of gene expression, Irf7 (probe 1417244_a_at)” value [1] was −0.3 (2×) and −0.4. For the same substance, the “Z score of gene expression, Irgm1 (probe 1418825_at)” value [1] was 0.07 and 0.13 and 0.08, the “Z score of gene expression, Mndal (probe 1426906_at)” value [1] was −0.4 and −0.5 (2×) and the “Z score of gene expression, Pml (probe 1448757_at)” value [1] was −0.5 and −0.6 and −0.8. The “Z score of gene expression, Pml (probe 1456103_at)” value [1] was −0.5, the “Z score of gene expression, Rnf213 (probe 1455500_at)” value [1] was 0.02 and 0.06 and 0.03 and the “Z score of gene expression, Rsad2 (probe 1436058_at)” value [1] was −0.4. The “Z score of gene expression, Shisa5 (probe 1423986_a_at)” value [1] was −0.1 and 0.01 and 0.18, the “Z score of gene expression, Shisa5 (probe 1437503_a_at)” value [1] was −0.2 and −0.3 and −0.1 and the “Z score of gene expression, Stat1 (probe 1450033_a_at)” value [1] was −0.1 and −0 and 0. For the same substance, the “Z score of gene expression, Stat1 (probe 1450034_at)” value [1] was −0.1 (2×) and −0, the “Z score of gene expression, Tdrd7 (probe 1426716_at)” value [1] was −0.5 (2×) and −0.4 and the “Z score of gene expression, Tor1aip2 (probe 1418115_s_at)” value [1] was −0.6 and −0.5 (2×). For the same substance, the “Z score of gene expression, Tor1aip2 (probe 1418116_at)” value [1] was −0.7 (2×) and −0.9, the “Z score of gene expression, Tor1aip2 (probe 1435526_at)” value [1] was −0.8 and −0.9 (2×) and the “Z score of gene expression, Trim12a (probe 1437432_a_at)” value [1] was 0.1 and −0.1 and −0.2. The “Z score of gene expression, Uba7 (probe 1426970_a_at)” value [1] was −0.4 and −0.5 and −0.3, the “adjuvant group (cluster) in LN” value ([2]; hierarchical clustering) was “G3” and the “Number of gene probes with statistically significant changes (sDEGs), LN, Down” value ([2]; i.d. administration, fold change <0.667, p<0.01, customized PA call=1, 6 h after adjuvant) was 306. For the same substance, the “Number of gene probes with statistically significant changes (sDEGs), LN, Up” value ([2]; i.d. administration, fold change >1.5, p<0.01, customized PA call=1, 6 h after adjuvant) was 526, the “distribution/strength of gene responses between local LNs and systemic organs (LV, SP)” value ([3]; 6 h after i.d. (local) administration) was “greater responses in LV and SP than in LNs” and the “adjuvant group (cluster) within the adjuvant gene space” value ([3]; hierarchical clustering, LV, SP and/or LNs) was “G3”. The “histological finding in liver (hematoxylin and eosin)” value [4] was “liver damage”.
